Key:
[1] = tested on: rat; details: Carcinogenicity; fischer; Oral; Feed; dose end: 103 week; group: systemic; systemic / in life observation / body weight / body weight
[2] = tested on: mouse; details: Carcinogenicity, b6c3f1, Oral, Feed, dose end: 103 week, group: systemic
[3] = tested on: rat; details: Sub-acute repeat dose toxicity, fischer, Oral, Feed, dose end: 14 day, group: systemic
[4] = tested on: mouse; details: Sub-acute repeat dose toxicity, b6c3f1, Oral, Feed, dose end: 14 day, group: systemic
[5] = tested on: mouse; details: Subchronic oral toxicity in rodents, b6c3f1, Feed, dose end: 13 week, group: systemic
[6] = tested on: rat; details: Subchronic oral toxicity in rodents, fischer, Feed, dose end: 13 week, group: systemic
[7] = tested on: dog; details: Chronic toxicity; beagle; Oral; Feed; dose end: 1 year; group: systemic; systemic / organ weight / kidney / absolute + systemic / pathology gross / liver / enlarged + systemic / pathology microscopic / epididymis…
[8] = tested on: dog; details: Subchronic oral toxicity in nonrodent, beagle, Feed, dose end: 90 day, group: systemic
[9] = tested on: mouse; details: Carcinogenicity, cd1, Oral, Feed, dose end: 18 month, group: systemic
[10] = tested on: rat; details: Subchronic oral toxicity in rodents, other, Feed, dose end: 90 day, group: systemic
[11] = tested on: rat; details: Multigenerational reproductive toxicity study, other, Oral, Feed, dose end: 2 generation
[12] = tested on: rat; details: Combined chronic toxicity/carcinogenicity, sprague dawley, Oral, Feed, dose end: 2 year, group: systemic
[13] = tested on: mouse; details: Carcinogenicity, other, Oral, Feed, dose end: 26 month, group: systemic
[14] = tested on: dog; details: Chronic toxicity; beagle; Oral; Feed; dose end: 52 week; group: systemic; systemic / clinical chemistry / albumin / albumin + systemic / clinical chemistry / triglycerides / triglycerides + systemic / pathology …
[15] = tested on: rat; details: Subchronic oral toxicity in rodents, wistar, Feed, dose end: 90 day, group: systemic
[16] = tested on: dog; details: Subchronic oral toxicity in nonrodent, beagle, Feed, dose end: 13 week, group: systemic, systemic / organ weight / liver / absolute + systemic / organ weight / liver / relative to body weight + systemic / pathology microscopic / …
[17] = tested on: rabbit; details: Prenatal developmental toxicity study, himalayan, Oral, Gavage/Intubation, dose end: 18 GD
[18] = tested on: rat; details: Prenatal developmental toxicity study, wistar, Dermal, Topical, dose end: 15 GD
[19] = tested on: rat; details: Combined chronic toxicity/carcinogenicity; wistar; Oral; Feed; dose end: 24 month; group: systemic; systemic / in life observation / body weight / body weight + systemic / in life observation / body weight / body weight gain + systemic / …
[20] = tested on: mouse; details: Carcinogenicity, b6c3f1, Oral, Feed, dose end: 24 month, group: systemic
[21] = tested on: rat; details: Prenatal developmental toxicity study, wistar, Oral, Gavage/Intubation, dose end: 15 GD
[22] = systemic / in life observation / body weight / body weight
[23] = systemic / in life observation / body weight / body weight + systemic / pathology microscopic / liver / adenoma/carcinoma combined + …
[24] = systemic / in life observation / body weight / body weight gain
[25] = systemic / in life observation / body weight / body weight gain + systemic / in life observation / food consumption / food consumption + …
[26] = systemic / in life observation / body weight / body weight + systemic / in life observation / food consumption / food consumption + systemic…
[27] = systemic / in life observation / body weight / body weight gain + systemic / in life observation / body weight / body weight
[28] = systemic / urinalysis / specific gravity/osmolality / specific gravity/osmolality + systemic / urinalysis / volume / volume
[29] = systemic / in life observation / body weight / body weight + systemic / pathology microscopic / stomach / cyst + systemic / pathology …
[30] = systemic / clinical chemistry / alanine aminotransferase (alt/sgpt) / alanine aminotransferase (alt/sgpt) + systemic / clinical chemistry / …
[31] = group: offspring, systemic / in life observation / body weight / offspring (pup) weight + systemic / in life observation / clinical signs / reduced body size
[32] = group: parental, systemic / in life observation / body weight / body weight gain
[33] = group: reproductive, reproductive / reproductive performance / gestational length / gestational length
[34] = systemic / in life observation / body weight / body weight gain + systemic / organ weight / liver / relative to body weight + systemic / …
[35] = systemic / pathology gross / skin / desiccation + systemic / pathology microscopic / ear / hyperkeratosis + systemic / pathology microscopic…
[36] = systemic / clinical chemistry / cytochrome p450, nos / cytochrome p450, nos + systemic / pathology microscopic / esophagus / hyperkeratosis…
[37] = group: developmental, developmental / developmental malformation / bone / [other] + developmental / developmental malformation / bone / absent + developmental / …
[38] = group: maternal, systemic / in life observation / body weight / body weight gain + systemic / in life observation / clinical signs / anal prolapse + systemic…
[39] = group: developmental, developmental / developmental malformation / bone / incomplete ossification + developmental / developmental malformation / bone / unossified
[40] = group: maternal, systemic / in life observation / clinical signs / erythema + systemic / pathology gross / skin / [other]
[41] = group: maternal, systemic / in life observation / clinical signs / erythema + systemic / pathology gross / skin / [other] + systemic / pathology gross / skin…
[42] = systemic / pathology microscopic / adrenal gland / hyperplasia + systemic / clinical chemistry / bilirubin / total bilirubin
[43] = group: developmental, developmental / developmental malformation / bone / incomplete ossification + developmental / developmental malformation / bone / unossified…
[44] = group: maternal, systemic / in life observation / body weight / body weight + systemic / in life observation / body weight / body weight gain + systemic / in…

With `CCCCC(CC)COC(=O)CCCCC(=O)OCC(CC)CCCC` (centres undefined) [Di(2-ethylhexyl) adipate] the LEL [1] was 1250 mg/kg/day, the LOAEL [1] was 1250 mg/kg/day and the NEL [1] was 600 mg/kg/day. The NOAEL [1] was 600 mg/kg/day, the LOAEL [2, 22] was 1800 mg/kg/day and the NOAEL [2, 22] was < 1800 mg/kg/day. For the same compound, the LEL [2, 23] was 1800 mg/kg/day, the NEL [2, 23] was < 1800 mg/kg/day and the LEL [3, 24] was 1250 mg/kg/day. For the same compound, the LOAEL [3, 24] was 2500 mg/kg/day, the NEL [3, 25] was 625 mg/kg/day and the NOAEL [3, 25] was 1250 mg/kg/day. It also gave an LEL [4, 22] of 3750 mg/kg/day, an LOAEL [4, 22] of 7500 mg/kg/day and an NEL [4, 26] of 1880 mg/kg/day. For the same compound, the NOAEL [4, 26] was 3750 mg/kg/day, the LEL [5, 24] was 465 mg/kg/day and the LOAEL [5, 27] was > 3750 mg/kg/day. The NEL [5, 27] was 240 mg/kg/day, the NOAEL [5, 27] was ≥ 3750 mg/kg/day and the LEL [6, 24] was 625 mg/kg/day. It also gave an LOAEL [6, 24] of 625 mg/kg/day, an NEL [6, 27] of 315 mg/kg/day and an NOAEL [6, 27] of 315 mg/kg/day.
`CCS(=O)(=O)c1cccnc1S(=O)(=O)NC(=O)Nc1nc(OC)cc(OC)n1` [Rimsulfuron] was tested, and the LEL [7] was 81.8 mg/kg/day, the LOAEL [7] was 81.8 mg/kg/day and the NEL [7] was 1.6 mg/kg/day. It also gave an NOAEL [7] of 1.6 mg/kg/day, an LEL [8, 28] of 6.25 mg/kg/day and an LOAEL [8, 28] of 125 mg/kg/day. For the same compound, the NEL [8, 28] was < 6.25 mg/kg/day, the NOAEL ([8]; systemic / urinalysis / specific gravity/osmolality / specific gravity/osmolality + systemic / urinalysis / volume / volume + systemic / …) was 6.25 mg/kg/day and the LOAEL [9, 29] was 1130 mg/kg/day. For the same compound, the NEL [9, 29] was 3.47 mg/kg/day, the NOAEL [9, 29] was 351 mg/kg/day and the LEL ([9]; systemic / pathology microscopic / testes / degeneration) was 35.5 mg/kg/day. The LEL [10, 30] was 3.35 mg/kg/day, the NEL [10, 30] was < 3.35 mg/kg/day and the NOAEL [10, 30] was 102 mg/kg/day. It also gave an LOAEL [10, 24] of 495 mg/kg/day, an LEL [11, 31] of 1320 mg/kg/day and an LOAEL [11, 31] of 1320 mg/kg/day. It also gave an NEL [11, 31] of 264 mg/kg/day, an NOAEL [11, 31] of 264 mg/kg/day and an LEL [11, 32] of 830 mg/kg/day. For the same compound, the LOAEL [11, 32] was 830 mg/kg/day, the NEL [11, 32] was 165 mg/kg/day and the NOAEL [11, 32] was 165 mg/kg/day. The LEL [11, 33] was 1020 mg/kg/day, the LOAEL [11, 33] was > 1020 mg/kg/day and the NEL [11, 33] was 204 mg/kg/day. For the same compound, the NOAEL [11, 33] was ≥ 1020 mg/kg/day, the LEL ([12]; systemic / clinical chemistry / alkaline phosphatase (alp/alk) / alkaline phosphatase (alp/alk)) was 11.8 mg/kg/day and the LOAEL ([12]; systemic / in life observation / body weight / body weight gain + systemic / organ weight / liver / relative to body weight) was 121 mg/kg/day. The NEL [12, 34] was 1 mg/kg/day and the NOAEL [12, 34] was 11.8 mg/kg/day.
For `CCCN(CC)CC1COC2(CCC(C(C)(C)C)CC2)O1` (centres undefined) [Spiroxamine], the LOAEL [13, 35] was 59.3 mg/kg/day, the NEL [13, 35] was 4.5 mg/kg/day and the NOAEL [13, 35] was 36.7 mg/kg/day. For the same compound, the LEL ([13]; systemic / pathology microscopic / esophagus / acanthosis + systemic / pathology microscopic / esophagus / hyperkeratosis + systemic / …) was 36.7 mg/kg/day, the LEL [14] was 25.8 mg/kg/day and the LOAEL [14] was 25.8 mg/kg/day. The NEL [14] was 2.48 mg/kg/day, the NOAEL [14] was 2.48 mg/kg/day and the LEL [15, 36] was 9.3 mg/kg/day. The NEL [15, 36] was 1.9 mg/kg/day, the NOAEL [15, 36] was 9.3 mg/kg/day and the LOAEL ([15]; systemic / pathology microscopic / esophagus / hyperkeratosis + systemic / pathology microscopic / esophagus / hyperplasia + systemic / …) was 54.9 mg/kg/day. For the same compound, the LEL [16] was 20 mg/kg/day, the LOAEL [16] was 20 mg/kg/day and the NEL [16] was 0.66 mg/kg/day. The NOAEL [16] was 0.66 mg/kg/day, the LEL [17, 37] was 80 mg/kg/day and the LOAEL [17, 37] was 80 mg/kg/day. For the same compound, the NEL [17, 37] was 20 mg/kg/day, the NOAEL [17, 37] was 20 mg/kg/day and the LEL [17, 38] was 80 mg/kg/day. The LOAEL [17, 38] was 80 mg/kg/day, the NEL [17, 38] was 20 mg/kg/day and the NOAEL [17, 38] was 20 mg/kg/day. For the same compound, the LEL [18, 39] was 80 mg/kg/day, the LOAEL [18, 39] was 80 mg/kg/day and the NEL [18, 39] was 20 mg/kg/day. For the same compound, the NOAEL [18, 39] was 20 mg/kg/day, the LOAEL [18, 40] was 5 mg/kg/day and the NOAEL [18, 40] was < 5 mg/kg/day. For the same compound, the LEL [18, 41] was 5 mg/kg/day, the NEL [18, 41] was < 5 mg/kg/day and the LEL [19] was 32.8 mg/kg/day. The LOAEL [19] was 32.8 mg/kg/day, the NEL [19] was 4.22 mg/kg/day and the NOAEL [19] was 4.22 mg/kg/day. The LOAEL ([20]; systemic / pathology microscopic / adrenal gland / hyperplasia) was 150 mg/kg/day, the LEL [20, 42] was 41 mg/kg/day and the NEL [20, 42] was < 41 mg/kg/day. The NOAEL ([20]; systemic / pathology microscopic / adrenal gland / hyperplasia + systemic / pathology microscopic / adrenal gland / adenoma + systemic / …) was 41 mg/kg/day, the LOAEL ([21]; group: developmental, developmental / developmental malformation / bone / [other] + developmental / developmental malformation / mouth / jaw / cleft palate + …) was 100 mg/kg/day and the LEL [21, 43] was 10 mg/kg/day. For the same compound, the NEL [21, 43] was < 10 mg/kg/day, the NOAEL [21, 43] was 30 mg/kg/day and the LEL [21, 44] was 100 mg/kg/day. The LOAEL [21, 44] was 100 mg/kg/day, the NEL [21, 44] was 30 mg/kg/day and the NOAEL [21, 44] was 30 mg/kg/day.

Source: EPA's ToxRefDB 2
